From patent US20250304596A1, “PYRAZINE DERIVATIVES AND USES THEREOF” (FOGHORN THERAPEUTICS INC., priority 2022, published 2025)

How the values were obtained:
HiBit-BRM fusion protein = target: T1, HiBit-BRM fusion protein (Homo sapiens, UniProt P51531); test: HiBiT-BRM cell-based degradation assay (Nano-Glo HiBiT Lytic Detection, 24 h); conditions: stable HeLa cell line expressing HiBiT-BRM; for DC50: read-out: BRM HiBit Degradation IC50
T1 construct: expressed in transfected cells
Method in brief: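 Luminescence from LgBiT complementation after lysis measured HiBiT-BRM levels in stably expressing HeLa cells. Compounds were dosed at up to 30 μM final, in 3-fold 10-point dilutions, for 24 h. Percent degradation was scaled between DMSO wells and wells treated with 2 μM standard BRM/BRG1 degrader.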

[1] = target: T2, HiBit-BRG1 fusion protein (Homo sapiens, UniProt P51532); test: HiBiT-BRG1 cell-based degradation assay (Nano-Glo HiBiT Lytic Detection, 24 h); conditions: stable HeLa cell line expressing HiBit-BRG1 and LgBit; for Dmax: read-out: BRG1 HiBit Degradation Maximum (%); for DC50: read-out: BRMG1 HiBit Degradation IC50
T2 construct: expressed in transfected cells
Method in brief: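 Degradation read by lytic NanoBiT luminescence after 24 h compound exposure of a stable HiBit-BRG1/LgBit HeLa line. Ten-point, 3-fold series in duplicate, top final dose 30 μM; DMSO and 2 μM standard degrader define 0% and 100% degradation.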

T1 sequence (P51531 whole entry, the tested form may be a part): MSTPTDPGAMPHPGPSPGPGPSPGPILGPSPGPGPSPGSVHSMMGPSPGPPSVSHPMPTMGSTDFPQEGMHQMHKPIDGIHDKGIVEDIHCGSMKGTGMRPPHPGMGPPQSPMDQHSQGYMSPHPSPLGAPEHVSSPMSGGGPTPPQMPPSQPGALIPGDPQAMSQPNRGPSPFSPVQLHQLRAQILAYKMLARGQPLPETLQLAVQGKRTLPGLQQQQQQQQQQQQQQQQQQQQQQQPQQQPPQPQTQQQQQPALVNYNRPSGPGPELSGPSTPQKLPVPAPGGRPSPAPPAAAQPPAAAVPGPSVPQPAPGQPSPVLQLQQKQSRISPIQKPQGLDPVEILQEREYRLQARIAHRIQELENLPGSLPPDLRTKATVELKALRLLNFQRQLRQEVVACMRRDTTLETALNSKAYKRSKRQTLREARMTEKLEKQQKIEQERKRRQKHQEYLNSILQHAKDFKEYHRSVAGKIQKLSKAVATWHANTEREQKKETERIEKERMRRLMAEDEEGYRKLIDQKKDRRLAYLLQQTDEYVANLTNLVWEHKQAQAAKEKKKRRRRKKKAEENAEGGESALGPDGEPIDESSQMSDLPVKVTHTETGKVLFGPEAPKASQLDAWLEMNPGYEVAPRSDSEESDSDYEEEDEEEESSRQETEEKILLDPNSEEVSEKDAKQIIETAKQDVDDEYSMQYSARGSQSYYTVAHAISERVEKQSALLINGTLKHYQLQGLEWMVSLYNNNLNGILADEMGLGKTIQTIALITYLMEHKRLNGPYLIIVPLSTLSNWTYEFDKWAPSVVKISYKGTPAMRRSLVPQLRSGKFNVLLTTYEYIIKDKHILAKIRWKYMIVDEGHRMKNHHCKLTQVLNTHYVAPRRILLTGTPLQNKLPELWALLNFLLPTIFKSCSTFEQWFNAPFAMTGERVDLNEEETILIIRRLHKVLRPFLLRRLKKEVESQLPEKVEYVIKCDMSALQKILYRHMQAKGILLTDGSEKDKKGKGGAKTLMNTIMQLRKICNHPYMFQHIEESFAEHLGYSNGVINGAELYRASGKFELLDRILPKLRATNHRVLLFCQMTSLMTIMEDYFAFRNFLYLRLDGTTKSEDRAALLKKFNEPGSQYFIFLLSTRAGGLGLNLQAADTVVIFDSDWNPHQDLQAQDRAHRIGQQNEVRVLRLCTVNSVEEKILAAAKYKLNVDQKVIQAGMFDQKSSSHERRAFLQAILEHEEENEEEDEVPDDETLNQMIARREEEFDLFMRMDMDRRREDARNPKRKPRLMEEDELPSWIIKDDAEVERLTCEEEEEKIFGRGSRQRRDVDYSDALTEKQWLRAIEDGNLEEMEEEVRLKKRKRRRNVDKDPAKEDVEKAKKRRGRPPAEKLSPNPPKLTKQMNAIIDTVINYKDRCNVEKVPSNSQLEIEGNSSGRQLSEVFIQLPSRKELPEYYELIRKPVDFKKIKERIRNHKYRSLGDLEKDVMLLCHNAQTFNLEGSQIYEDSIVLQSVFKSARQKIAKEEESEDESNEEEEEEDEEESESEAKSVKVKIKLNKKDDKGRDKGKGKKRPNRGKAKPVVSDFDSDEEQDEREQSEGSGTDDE
T2 sequence (P51532 whole entry, the tested form may be a part): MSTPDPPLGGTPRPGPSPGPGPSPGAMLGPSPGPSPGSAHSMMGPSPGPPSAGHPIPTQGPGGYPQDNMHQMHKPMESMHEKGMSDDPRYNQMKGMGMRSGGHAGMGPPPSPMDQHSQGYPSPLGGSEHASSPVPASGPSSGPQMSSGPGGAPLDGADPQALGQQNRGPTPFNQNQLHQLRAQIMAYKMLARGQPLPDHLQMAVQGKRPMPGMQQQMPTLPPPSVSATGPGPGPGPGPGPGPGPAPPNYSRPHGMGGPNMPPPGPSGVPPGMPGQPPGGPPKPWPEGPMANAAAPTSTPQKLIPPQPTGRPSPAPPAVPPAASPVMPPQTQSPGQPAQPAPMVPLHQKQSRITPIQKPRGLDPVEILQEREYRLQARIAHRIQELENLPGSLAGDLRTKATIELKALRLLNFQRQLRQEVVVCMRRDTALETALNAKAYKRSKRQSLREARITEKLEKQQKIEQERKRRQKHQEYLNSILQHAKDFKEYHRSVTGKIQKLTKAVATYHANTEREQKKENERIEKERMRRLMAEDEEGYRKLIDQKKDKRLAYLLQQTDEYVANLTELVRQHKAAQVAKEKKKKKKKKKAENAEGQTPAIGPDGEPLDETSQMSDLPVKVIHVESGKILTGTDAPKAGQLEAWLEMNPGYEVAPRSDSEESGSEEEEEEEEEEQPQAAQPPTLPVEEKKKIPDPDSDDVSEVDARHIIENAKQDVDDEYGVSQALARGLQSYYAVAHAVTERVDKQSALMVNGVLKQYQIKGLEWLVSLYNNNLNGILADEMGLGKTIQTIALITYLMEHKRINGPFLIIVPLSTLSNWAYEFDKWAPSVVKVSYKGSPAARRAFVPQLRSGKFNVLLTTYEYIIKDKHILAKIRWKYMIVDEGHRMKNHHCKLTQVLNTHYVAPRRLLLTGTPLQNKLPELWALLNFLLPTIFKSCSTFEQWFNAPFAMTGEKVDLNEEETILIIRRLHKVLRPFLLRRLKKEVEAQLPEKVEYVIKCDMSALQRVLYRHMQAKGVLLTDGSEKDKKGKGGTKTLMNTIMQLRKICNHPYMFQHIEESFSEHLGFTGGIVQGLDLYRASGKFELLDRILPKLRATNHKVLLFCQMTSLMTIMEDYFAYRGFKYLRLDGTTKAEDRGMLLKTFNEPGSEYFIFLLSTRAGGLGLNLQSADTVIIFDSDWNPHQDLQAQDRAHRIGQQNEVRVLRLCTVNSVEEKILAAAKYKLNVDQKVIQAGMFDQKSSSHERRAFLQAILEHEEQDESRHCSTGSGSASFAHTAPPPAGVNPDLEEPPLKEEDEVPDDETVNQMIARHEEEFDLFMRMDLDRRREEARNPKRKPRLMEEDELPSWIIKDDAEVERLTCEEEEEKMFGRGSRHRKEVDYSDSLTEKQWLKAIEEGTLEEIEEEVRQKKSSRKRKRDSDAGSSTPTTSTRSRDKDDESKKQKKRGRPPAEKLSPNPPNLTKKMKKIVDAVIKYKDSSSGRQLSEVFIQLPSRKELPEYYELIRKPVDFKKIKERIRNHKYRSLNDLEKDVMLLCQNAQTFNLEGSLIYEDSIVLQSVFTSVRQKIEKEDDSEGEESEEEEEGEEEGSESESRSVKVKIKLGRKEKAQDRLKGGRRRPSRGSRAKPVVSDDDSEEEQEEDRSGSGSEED

| DC50 (HiBit-BRM fusion protein) [nM] | Dmax [1] [%] | DC50 [1] [nM] | SMILES | BRM HiBit Degradation Maximum (%) (HiBit-BRM fusion protein) |
| --- | --- | --- | --- | --- |
| > 10 | < 50 |  | Cc1ncsc1-c1ccc([C@H](C)NC(=O)[C@@H]2C[C@@H](O)CN2C(=O)[C@@H](c2cc(-c3cnc(N4CCC(c5sc6nnc(-c7ccccc7O)cc6c5C5CC5)CC4)nc3)no2)C(C)C)cc1 [Compound 84, (2S,4R)-1-((R)-2-(3-(2-(4-(5-cyclopropyl-3-(2-hydroxyphenyl)thieno[2,3-c]pyridazin-6-yl)piperidin-1-yl)pyrimidin-5-yl)isoxazol-5-yl)-3-methylbutanoyl)-4-hydroxy-N-((S)-1-(4-(4-methylthiazol-5-yl)phenyl)ethyl)pyrrolidine-2-carboxamide] | B (“B” indicates maximum degradation ≥50%) |
| < 10 | > 50 | > 10 | Cc1ncsc1-c1ccc([C@H](C)NC(=O)[C@@H]2C[C@@H](O)CN2C(=O)[C@@H](c2cc(-c3cnc(N4CC[C@@H](c5cc6nnc(-c7ccccc7O)cc6s5)C4)nc3)no2)C(C)C)cc1 [Compound 82, (2S,4R)-4-hydroxy-1-((R)-2-(3-(2-((R)-3-(3-(2-hydroxyphenyl)thieno[3,2-c]pyridazin-6-yl)pyrrolidin-1-yl)pyrimidin-5-yl)isoxazol-5-yl)-3-methylbutanoyl)-N-((S)-1-(4-(4-methylthiazol-5-yl)phenyl)ethyl)pyrrolidine-2-carboxamide] | A (“A” indicates maximum degradation ≥75%) |
| < 10 | < 50 | > 1000 | Cc1ncsc1-c1ccc([C@H](C)NC(=O)[C@@H]2C[C@@H](O)CN2C(=O)[C@@H](c2cc(-c3cnc(N4CCC(c5sc6nnc(-c7ccccc7O)cc6c5C)CC4)nc3)no2)C(C)C)cc1 (single isomer, unassigned) [Compound 66] | A (“A” indicates maximum degradation ≥75%) |
| > 10 | < 50 |  | Cc1ncsc1-c1ccc([C@H](C)NC(=O)[C@@H]2C[C@@H](O)CN2C(=O)[C@@H](c2cc(-c3cnc(CN4CCC(c5cc6cc(-c7ccccc7O)nnc6s5)CC4)nc3)no2)C(C)C)cc1 (single isomer, unassigned) [Compound 99] | B (“B” indicates maximum degradation ≥50%) |
| > 1000 | < 50 | > 1000 | Cc1ncsc1-c1ccc([C@H](C)NC(=O)[C@@H]2C[C@@H](O)CN2C(=O)[C@@H](c2cc(C3CCN(c4ncc(-c5sc6nnc(-c7ccccc7O)cc6c5C)cn4)CC3)no2)C(C)C)cc1 [Compound 32, (2S,4R)-4-hydroxy-1-((R)-2-(3-(1-(5-(3-(2-hydroxyphenyl)-5-methylthieno[2,3-c]pyridazin-6-yl)pyrimidin-2-yl)piperidin-4-yl)isoxazol-5-yl)-3-methylbutanoyl)-N-((S)-1-(4-(4-methylthiazol-5-yl)phenyl)ethyl)pyrrolidine-2-carboxamide] | C (“C” indicates maximum degradation <50%) |
| > 10 | < 50 |  | Cc1ncsc1-c1ccc([C@H](C)NC(=O)[C@@H]2C[C@@H](O)CN2C(=O)[C@@H](c2cc(N3CCN(c4sc5nnc(-c6ccccc6O)cc5c4C)CC3)no2)C(C)C)cc1 [Compound 80, (2S,4R)-4-hydroxy-1-((R)-2-(3-(4-(3-(2-hydroxyphenyl)-5-methylthieno[2,3-c]pyridazin-6-yl)piperazin-1-yl)isoxazol-5-yl)-3-methylbutanoyl)-N-((S)-1-(4-(4-methylthiazol-5-yl)phenyl)ethyl)pyrrolidine-2-carboxamide] | A (“A” indicates maximum degradation ≥75%) |
| < 10 | < 50 | > 1000 | Cc1ncsc1-c1ccc([C@H](C)NC(=O)[C@@H]2C[C@@H](O)CN2C(=O)[C@@H](c2cc(-c3cnc(N4CC[C@H](c5sc6nnc(-c7ccccc7O)cc6c5C)C[C@@H]4C)nc3)no2)C(C)C)cc1 [Compound 27, (2S,4R)-4-hydroxy-1-((R)-2-(3-(2-((2S,4S)-4-(3-(2-hydroxyphenyl)-5-methylthieno[2,3-c]pyridazin-6-yl)-2-methylpiperidin-1-yl)pyrimidin-5-yl)isoxazol-5-yl)-3-methylbutanoyl)-N-((S)-1-(4-(4-methylthiazol-5-yl)phenyl)ethyl)pyrrolidine-2-carboxamide] | A (“A” indicates maximum degradation ≥75%) |
| < 10 | < 50 | > 1000 | Cc1ncsc1-c1ccc([C@H](C)NC(=O)[C@@H]2C[C@@H](O)CN2C(=O)[C@@H](c2cc(-c3cnc(N4CC[C@@H](c5cc6cc(-c7ccccc7O)nnc6s5)C4)nc3)no2)C(C)C)cc1 (single isomer, unassigned) [Compound 5] | A (“A” indicates maximum degradation ≥75%) |
| < 10 | > 50 | > 100 | Cc1ncsc1-c1ccc([C@H](C)NC(=O)[C@@H]2C[C@@H](O)CN2C(=O)[C@@H](c2cc(N3CCC4(CC3)CC(c3cc5nnc(-c6ccccc6O)cc5s3)C4)no2)C(C)C)cc1 [Compound 12, (2S,4R)-4-hydroxy-1-((R)-2-(3-(2-(3-(2-hydroxyphenyl)thieno[3,2-c]pyridazin-6-yl)-7-azaspiro[3.5]nonan-7-yl)isoxazol-5-yl)-3-methylbutanoyl)-N—((S)-1-(4-(4-methylthiazol-5-yl)phenyl)ethyl)pyrrolidine-2-carboxamide] | A (“A” indicates maximum degradation ≥75%) |
| < 10 | < 50 | > 1000 | Cc1ncsc1-c1ccc([C@H](C)NC(=O)[C@@H]2C[C@@H](O)CN2C(=O)[C@@H](c2cc(-c3cnc(N4CC[C@H](c5sc6nnc(-c7ccccc7O)cc6c5C)C4)nc3)no2)C(C)C)cc1 [Compound 41, (2S,4R)-4-hydroxy-1-((R)-2-(3-(2-((S)-3-(3-(2-hydroxyphenyl)-5-methylthieno[2,3-c]pyridazin-6-yl)pyrrolidin-1-yl)pyrimidin-5-yl)isoxazol-5-yl)-3-methylbutanoyl)-N-((S)-1-(4-(4-methylthiazol-5-yl)phenyl)ethyl)pyrrolidine-2-carboxamide] | A (“A” indicates maximum degradation ≥75%) |
| < 10 | > 75 | > 10 | Cc1ncsc1-c1ccc([C@H](C)NC(=O)[C@@H]2C[C@@H](O)CN2C(=O)[C@@H](c2cc(-c3cnc(N4CCN(c5sc6nnc(-c7ccccc7O)cc6c5C)CC4)nc3)no2)C(C)C)cc1 [Compound 53, (2S,4R)-4-hydroxy-1-((R)-2-(3-(2-(4-(3-(2-hydroxyphenyl)-5-methylthieno[2,3-c]pyridazin-6-yl)piperazin-1-yl)pyrimidin-5-yl)isoxazol-5-yl)-3-methylbutanoyl)-N-((S)-1-(4-(4-methylthiazol-5-yl)phenyl)ethyl)pyrrolidine-2-carboxamide] | A (“A” indicates maximum degradation ≥75%) |
| > 10 | < 50 | > 1000 | COc1nc(N2CCC(c3sc4nnc(-c5ccccc5O)cc4c3C)CC2)ccc1-c1cc([C@H](C(=O)N2C[C@H](O)C[C@H]2C(=O)N[C@@H](C)c2ccc(-c3scnc3C)cc2)C(C)C)on1 [Compound 20, (2S,4R)-4-hydroxy-1-((R)-2-(3-(6-(4-(3-(2-hydroxyphenyl)-5-methylthieno[2,3-c]pyridazin-6-yl)piperidin-1-yl)-2-methoxypyridin-3-yl)isoxazol-5-yl)-3-methylbutanoyl)-N-((S)-1-(4-(4-methylthiazol-5-yl)phenyl)ethyl)pyrrolidine-2-carboxamide] | A (“A” indicates maximum degradation ≥75%) |
| > 1000 | < 50 | > 1000 | Cc1ncsc1-c1ccc([C@H](C)NC(=O)[C@@H]2C[C@@H](O)CN2C(=O)[C@@H](c2cc(N3CC(c4sc5nnc(-c6ccccc6O)cc5c4C)C3)no2)C(C)C)cc1 [Compound 19, (2S,4R)-4-hydroxy-1-((R)-2-(3-(3-(3-(2-hydroxyphenyl)-5-methylthieno[2,3-c]pyridazin-6-yl)azetidin-1-yl)isoxazol-5-yl)-3-methylbutanoyl)-N-((S)-1-(4-(4-methylthiazol-5-yl)phenyl)ethyl)pyrrolidine-2-carboxamide] | 2% |
| > 10 | < 50 | > 1000 | Cc1cc(-c2cc([C@H](C(=O)N3C[C@H](O)C[C@H]3C(=O)N[C@@H](C)c3ccc(-c4scnc4C)cc3)C(C)C)on2)cnc1N1CCC(c2cc3cc(-c4ccccc4O)nnc3s2)CC1 (single isomer, unassigned) [Compound 2] | A (“A” indicates maximum degradation ≥75%) |
| < 10 | > 50 |  | Cc1ncsc1-c1ccc([C@H](C)NC(=O)[C@@H]2C[C@@H](O)CN2C(=O)[C@@H](c2cc(N3CC4(C3)CN(c3sc5nnc(-c6ccccc6O)cc5c3C)C4)no2)C(C)C)cc1 [Compound 79, (2S,4R)-4-hydroxy-1-((R)-2-(3-(6-(3-(2-hydroxyphenyl)-5-methylthieno[2,3-c]pyridazin-6-yl)-2,6-diazaspiro[3.3]heptan-2-yl)isoxazol-5-yl)-3-methylbutanoyl)-N-((S)-1-(4-(4-methylthiazol-5-yl)phenyl)ethyl)pyrrolidine-2-carboxamide] | A (“A” indicates maximum degradation ≥75%) |
